How the values were obtained:
[1] = system: wounds of STZ-induced diabetic Nrf2+/+ mice; test: Wound closure in STZ-induced diabetic mouse model; type: in vivo; conditions: for wound closure / diameter of granulation tissue between the flanking hair follicles: STZ mice; for wound closure: 12.5 mg/kg SF or 50 mg/kg CA i.p. every other day, up to 14 days after wound surgery, vs untreated STZ; for diameter of granulation tissue between the flanking hair follicles: day 14 post-surgery, histological examination
Excerpt: Diabetes mouse model and treatments. Nrf2^+/+ and Nrf2^-/- C57BL/6 mice were described previously (see, e.g., Jiang T, et al., Diabetes 59:850-860, 2010) and were housed and handled in accordance with the University of Arizona Institutional Animal Care policies. The STZ-induced diabetic model was previously described (see, e.g., Zheng H, et al., Diabetes 60:3055-3066, 2011) and only 8 week old male mice were included in this study. Briefly, three weeks after STZ injections, fasting glucose levels (FGL, 4 h fast) were measured using the AlphaTRAK system (Abbott Laboratory, North Chicago, Ill.) and mice with a FGL higher than or equal to 250 mg/dL were considered diabetic and included in the study (see, e.g., FIG. 2A and FIG. 3A for a detailed timeline). The mice (n=5-8) were then allocated randomly to each of the indicated treatment groups and received corn oil (control), 12.5 mg/kg SF or 50 mg/kg CA intraperitoneally every two days until skin tissues were harvested. One week after the treatments, the mice were anesthetized, their backs were shaved and cleaned. Two wounds were made with a sterile 6 mm skin biopsy punch (Health link, Jacksonville, Fla.) and covered with 3M Tegaderm pads. The wounds were photographed using an in vivo imaging system and an infrared integrated system ([…], Northampton, UK) for 14 days. Gross wound closure was quantified by ImageJ software, and wound healing was expressed as the percentage of the original wound area that had healed. The tissues were collected using an 8 mm skin biopsy punch; one half was fixed in 10% buffered formalin and embedded in paraffin while the other half was used for protein extraction. For the experiments in non-diabetic mice (FIG. 9), mice were injected with sodium citrate buffer and randomly allocated to the treatment groups (n=3-5). Wounds and tissue collection were performed as described above.

[2] = Digital infrared thermal imaging of wounds in STZ mice; type: in vivo, mouse; conditions: exaggerated gradient vs Con group
Description: Diabetes mouse model and treatments. […] Briefly, three weeks after STZ injections, fasting glucose levels (FGL, 4 h fast) were measured using the AlphaTRAK system (Abbott Laboratory, North Chicago, Ill.) and mice with a FGL higher than or equal to 250 mg/dL were considered diabetic and included in the study (see, e.g., FIG. 2A and FIG. 3A for a detailed timeline). The mice (n=5-8) were then allocated randomly to each of the indicated treatment groups and received corn oil (control), 12.5 mg/kg SF or 50 mg/kg CA intraperitoneally every two days until skin tissues were harvested. One week after the treatments, the mice were anesthetized, their backs were shaved and cleaned. Two wounds were made with a sterile 6 mm skin biopsy punch (Health link, Jacksonville, Fla.) and covered with 3M Tegaderm pads. The wounds were photographed using an in vivo imaging system and an infrared integrated system (IRISYS, Northampton, UK) for 14 days. Gross wound closure was quantified by ImageJ software, and wound healing was expressed as the percentage of the original wound area that had healed. The tissues were collected using an 8 mm skin biopsy punch; one half was fixed in 10% buffered formalin and embedded in paraffin while the other half was used for protein extraction. […]

8-oxo-dG = test: Oxidative DNA damage (8-oxo-dG IHC) in wound skin tissues of STZ mice; type: in vivo, mouse
Excerpt: Diabetes mouse model and treatments. Nrf2^+/+ and Nrf2^-/- C57BL/6 mice were described previously (see, e.g., Jiang T, et al., Diabetes 59:850-860, 2010) and were housed and handled in accordance with the University of Arizona Institutional Animal Care policies. The STZ-induced diabetic model was previously described (see, e.g., Zheng H, et al., Diabetes 60:3055-3066, 2011) and only 8 week old male mice were included in this study. Briefly, three weeks after STZ injections, fasting glucose levels (FGL, 4 h fast) were measured using the AlphaTRAK system (Abbott Laboratory, North Chicago, Ill.) and mice with a FGL higher than or equal to 250 mg/dL were considered diabetic and included in the study (see, e.g., FIG. 2A and FIG. 3A for a detailed timeline). The mice (n=5-8) were then allocated randomly to each of the indicated treatment groups and received corn oil (control), 12.5 mg/kg SF or 50 mg/kg CA intraperitoneally every two days until skin tissues were harvested. One week after the treatments, the mice were anesthetized, their backs were shaved and cleaned. […] Gross wound closure was quantified by ImageJ software, and wound healing was expressed as the percentage of the original wound area that had healed. […] Morphology was assessed by hematoxylin and eosin (H&E) staining (Vector laboratory, Burlingame, Calif.). […]

[3] = Body weight and blood glucose in STZ-induced diabetic mice; type: in vivo, mouse; conditions: diabetic Nrf2+/+ mice; 12.5 mg/kg SF or 50 mg/kg CA intraperitoneally every other day; vs untreated STZ
Description: Diabetes mouse model and treatments. […] Briefly, three weeks after STZ injections, fasting glucose levels (FGL, 4 h fast) were measured using the AlphaTRAK system (Abbott Laboratory, North Chicago, Ill.) and mice with a FGL higher than or equal to 250 mg/dL were considered diabetic and included in the study (see, e.g., FIG. 2A and FIG. 3A for a detailed timeline). The mice (n=5-8) were then allocated randomly to each of the indicated treatment groups and received corn oil (control), 12.5 mg/kg SF or 50 mg/kg CA intraperitoneally every two days until skin tissues were harvested.
After induction of diabetes using STZ, diabetic Nrf2^+/+ mice were intraperitoneally injected with corn oil (vehicle control), 12.5 mg/kg SF, or 50 mg/kg CA every other day for 1 week, then the wound surgery was performed and the treatment continued for 2 more weeks (FIG. 3A).

Compound | wound closure [1] | diameter of granulation tissue between the flanking hair follicles [1] | temperature gradients (ΔT) between wound area and surrounding healthy tissue [2] | oxidative DNA damage (8-oxo-dG) (8-oxo-dG) | blood glucose levels [3] | body weight [3] | wound closure compared with non-diabetic Con mice ([1]; STZ+SF mice, during the first 7 days)
O=CC=Cc1ccccc1 [CA, Cinnamaldehyde] | accelerated wound closure | markedly reduced | abolished this effect | greatly alleviated the oxidative DNA damage | failed to decrease blood glucose levels | reversed the body weight loss during the initial phase of diabetes | –
C[S@@+]([O-])CCCCN=C=S [SF, L-sulforaphane] | accelerated wound closure | markedly reduced | abolished this effect | greatly alleviated the oxidative DNA damage | failed to decrease blood glucose levels | reversed the body weight loss during the initial phase of diabetes | even faster than that of the Con mice
